According to patent US11504363B2, “Method of treating cancer and bone cancer pain” (Exelixis, Inc., priority 2011, dated 2022):

Experiments:
[1] = system: differentiated thyroid cancer, bone metastasis to the skull; assay: Phase 1 drug-drug trial, differentiated thyroid cancer with bone metastasis (Case Study 7); type: in vivo, human; settings: one patient, after 9 weeks of treatment
[2] = system: melanoma with bone metastases; assay: Randomized discontinuation study, melanoma with bone metastases (Case Study 5); type: in vivo, human; settings: 39 of 65 patients
[3] = system: breast cancer with bone metastases; assay: Randomized discontinuation study, breast cancer with bone metastases (Case Study 6); type: in vivo, human; settings: of 10 evaluable for bone scan resolution (forty percent)
[4] = system: pancreatic neuroendocrine tumor model; assay: Murine pancreatic neuroendocrine tumor model; settings: mouse, in vivo
[5] = system: CRPC patients with bone metastases; assay: Phase 2 adaptive randomized discontinuation trial (RDT), Case Study 2; type: in vivo, human; settings: for patients reporting improvements in bone pain: baseline bone pain; for patients achieving tumor regression / patients experiencing pain relief / patients reducing or eliminating need for narcotic analgesics / patients with marked declines in markers of bone turnover / patients free of disease progression at month 6: post hoc
From the text: Data on bone pain and narcotic use, as assessed by the investigator, were collected retrospectively.

[6] = system: CRPC patients with evidence of bone metastases on bone scan; assay: Phase 2 adaptive trial NCT00940225, first three CRPC patients with bone metastases (Case Study 1); type: in vivo, human
Protocol: In 2000, local disease recurrence was treated with radiation therapy. […] CAB with leuprolide and bicalutamide was initiated.

[7] = system: xenograft tumor models; assay: Xenograft tumor models; settings: in vivo
[8] = Phase 1 clinical study, tolerability; type: in vivo, human; settings: most common adverse events: fatigue, diarrhea, anorexia, rash, palmar-plantar erythrodysesthesia
[9] = system: renal cell carcinoma with bone metastases; assay: Phase I trial, renal cell carcinoma with bone metastases (Case Study 4); type: in vivo, human
[10] = patients with bone scan resolution
[11] = patients without bone scan resolution

Question: For `COc1cc2nccc(Oc3ccc(NC(=O)C4(C(=O)Nc5ccc(F)cc5)CC4)cc3)c2cc1OC` [Compound 1, N-(4-{[6,7-bis(methyloxy)quinolin-4-yl]oxy}phenyl)-N′-(4-fluorophenyl)cyclopropane-1,1-dicarboxamide], which “response of skull bone metastasis as judged by MRI” value [1] is on record?
Answer: dramatic response

Question: What about the “patients with tumor shrinkage based on bone scan analysis” value [2] of the same compound?
Answer: 60%

Question: And the “patients with tumor shrinkage based on bone scan analysis” value [3]?
Answer: 4 patients

Question: What about the overall survival [4] of the same compound?
Answer: substantially improves

Question: What about the “tumor invasiveness and metastasis” value [4] of the same compound?
Answer: significantly reduces

Question: And the “patients able to decrease or discontinue narcotic medication for bone pain” value ([5]; 47 of 67 patients on narcotic analgesics at baseline)?
Answer: 70%

Question: What about the “patients with pain improvement” value ([5]; 56 of 83 patients with bone metastases and bone pain at baseline, at either Week 6 or 12) of the same compound?
Answer: 68%

Question: What about the “patients with resolution or stabilization of metastatic bone lesions on bone scan” value ([5]; 82 of 108 evaluable patients) of the same compound?
Answer: 76%

Question: And the “hemoglobin levels in anemic patients” value ([5]; anemic patients)?
Answer: Durable increases

Question: What about the “patients reporting improvements in bone pain” value ([5]; complete resolution by bone scan (n=10)) of the same compound?
Answer: 80%

Question: What about the “patients reporting improvements in bone pain” value ([5]; partial resolution by bone scan (n=32)) of the same compound?
Answer: 84%

Question: And the “patients reporting improvements in bone pain” value ([5]; stabilization of disease by bone scan (n=13))?
Answer: 38%

Question: And the “median PFS” value ([5]; docetaxel-naïve patients (95% CI 24, upper limit not yet reached))?
Answer: 24 weeks

Question: What about the “median PFS” value ([5]; docetaxel-pretreated patients (95% CI 18, 33)) of the same compound?
Answer: 29 weeks

Question: And the “patients with stable disease (SD) on bone scan” value ([5]; independent reviewer, 23 of n=108)?
Answer: 21%

Question: What about the “subjects with partial or complete resolution of bone scan” value ([5]; independent reviewer, 82 of n=108) of the same compound?
Answer: 76%

Question: And the “patients with progressive disease in bone as best assessment” value ([5]; independent reviewer, three of n=108)?
Answer: 3%

Question: What about the “median PFS” value ([5]; overall population excluding those randomized to placebo, n=154) of the same compound?
Answer: 29 weeks

Question: And the “patients achieving tumor regression” value [5, 10]?
Answer: 78%

Question: And the “patients experiencing pain relief” value [5, 10]?
Answer: 83%

Question: What about the “patients reducing or eliminating need for narcotic analgesics” value [5, 10] of the same compound?
Answer: 68%

Question: What about the “patients with marked declines in markers of bone turnover” value [5, 10] of the same compound?
Answer: 60%

Question: What about the “patients free of disease progression at month 6” value ([5]; patients with bone scan resolution (complete or partial)) of the same compound?
Answer: 61%

Question: And the “patients achieving tumor regression” value [5, 11]?
Answer: 58%

Question: What about the “patients experiencing pain relief” value [5, 11] of the same compound?
Answer: 43%

Question: And the “patients reducing or eliminating need for narcotic analgesics” value [5, 11]?
Answer: 33%

Question: What about the “patients with marked declines in markers of bone turnover” value [5, 11] of the same compound?
Answer: 43%

Question: And the “patients free of disease progression at month 6” value ([5]; patients without bone scan resolution (stable or progressing bone scan))?
Answer: 35%

Question: What about the “reduction in the risk of progression compared with placebo” value ([5]; randomized discontinuation phase) of the same compound?
Answer: 87%

Question: And the “investigator-assessed median PFS from week 12 onward” value ([5]; randomized discontinuation phase, patients with SD at week 12, Compound 1 group n=14 (95% CI: 11 weeks, upper limit not yet reached))?
Answer: 21 weeks

Question: What about the “Bone scan (best response)” value ([6]; Patient 1) of the same compound?
Answer: Complete resolution

Question: And the “Hemoglobin (best response, change)” value ([6]; Patient 1)?
Answer: +1.4 g/dL

Question: And the “PSA (best response, change)” value ([6]; Patient 1)?
Answer: −78%

Question: And the “Pain (best response)” value ([6]; Patient 1)?
Answer: Improvement

Question: What about the “tALP (best response, change)” value ([6]; Patient 1) of the same compound?
Answer: −77%

Question: What about the “radiotracer uptake by bone metastases on bone scan” value ([6]; Patient 1, Week 6) of the same compound?
Answer: dramatic decrease

Question: What about the “bone lesions on bone scan” value ([6]; Patient 1, Week 12, stable through Week 18) of the same compound?
Answer: near complete resolution

Question: And the “adverse event leading to withdrawal” value ([6]; Patient 1, Week 18)?
Answer: Grade 3 diarrhea

Question: And the bone pain ([6]; Patient 1, four weeks after start)?
Answer: significant reduction

Question: And the “Bone scan (best response)” value ([6]; Patient 2)?
Answer: Improvement

Question: What about the “Hemoglobin (best response, change)” value ([6]; Patient 2) of the same compound?
Answer: +1.8 g/dL

Question: What about the “PSA (best response, change)” value ([6]; Patient 2) of the same compound?
Answer: +61%

Question: What about the “Pain (best response)” value ([6]; Patient 2) of the same compound?
Answer: Pain-free

Question: And the “tALP (best response, change)” value ([6]; Patient 2)?
Answer: −6%

Question: And the bone pain ([6]; Patient 2, Week 4)?
Answer: reduction in bone pain

Question: What about the “radiotracer uptake by bone lesions on bone scan” value ([6]; Patient 2, Week 6) of the same compound?
Answer: slight flair

Question: What about the “hemoglobin increase compared with baseline” value ([6]; Patient 2, Week 12) of the same compound?
Answer: 1.8 g/dL

Question: What about the “radiotracer uptake on bone scan” value ([6]; Patient 2, Week 12) of the same compound?
Answer: substantial reduction

Question: What about the PSA peak ([6]; Patient 2, by Week 16, placebo from Week 12, crossed over to Compound 1 at Week 15) of the same compound?
Answer: ~6 fold of baseline

Question: What about the PSA ([6]; Patient 2, by Week 18, subsequent to crossing over to Compound 1 from placebo) of the same compound?
Answer: 2 fold of baseline

Question: And the “Bone scan (best response)” value ([6]; Patient 3)?
Answer: Near resolution

Question: And the “Hemoglobin (best response, change)” value ([6]; Patient 3)?
Answer: +2.2 g/dL

Question: What about the “PSA (best response, change)” value ([6]; Patient 3) of the same compound?
Answer: −57%

Question: And the “Pain (best response)” value ([6]; Patient 3)?
Answer: Pain-free

Question: What about the “tALP (best response, change)” value ([6]; Patient 3) of the same compound?
Answer: −77%

Question: What about the “hemoglobin increase compared with baseline” value ([6]; Patient 3, Week 2) of the same compound?
Answer: 2.2 g/dL

Question: What about the “radiotracer uptake on bone scan” value ([6]; Patient 3, Week 6) of the same compound?
Answer: dramatic reduction

Question: And the “bone lesions on bone scan” value ([6]; Patient 3, Week 12)?
Answer: complete resolution of bone lesions

Question: What about the pain ([6]; Patient 3, after three weeks) of the same compound?
Answer: complete resolution of pain

Question: And the “tumor effect in xenograft tumor models” value [7]?
Answer: causes tumor regression

Question: And the tolerability [8]?
Answer: generally well-tolerated

Question: And the bone scan analysis ([9]; one patient (FIG. 4))?
Answer: tumor shrinkage was observed

Question: What about the “narcotic use to control pain” value ([9]; same patient, by seven weeks, continued until week 25) of the same compound?
Answer: substantially reduced narcotic use

Question: What about the pain ([9]; second patient, pain score 5 on a scale of 10 at baseline, by four weeks, pain-free as of week 73) of the same compound?
Answer: complete resolution of pain
